Measurements: ChEMBL document CHEMBL5113503, “Synthesis and biological evaluation of 4-(4-aminophenyl)-6-methylisoxazolo[3,4-b] pyridin-3-amine covalent inhibitors as potential agents for the treatment of acute myeloid leukemia” (Bioorg Med Chem, 2022)

Columns and labels:
MOLM-13 = assay: Antiproliferative activity against human MOLM-13 cells harboring FLT3-ITD mutant assessed as cell growth inhibition measured after 72 hrs by CCK8 assay; details: MOLM-13, 72 h
MV4-11 [1] = assay: Antiproliferative activity against human MV4-11 cells harboring FLT3-ITD mutant assessed as cell growth inhibition measured after 72 hrs by CCK8 assay; details: MV4-11, 72 h
HL-60 = assay: Antiproliferative activity against human HL-60 cells harboring wildtype FLT3 assessed as cell growth inhibition measured after 72 hrs by CCK8 assay; details: HL-60, 72 h
HepG2 = assay: Antiproliferative activity human HepG2 cells assessed as cell growth inhibition measured after 72 hrs by CCK8 assay; details: HepG2, 72 h
A549 = assay: Antiproliferative activity human A549 cells assessed as cell growth inhibition measured after 72 hrs by CCK8 assay; details: A549, 72 h
[2] = Cytotoxicity against HUVEC cells assessed as cell growth inhibition measured after 72 hrs by CCK8 assay; format: toxicity, cell-based; details: human
[3] = Cytotoxicity against human K562 cells assessed as cell growth inhibition measured after 72 hrs by CCK8 assay; format: toxicity, cell-based
MV4-11 [4] = assay: Induction of apoptosis in human MV4-11 cells assessed as viable cells at 0.1 uM measured after 48 hrs by Annexin V-FITC/PI double staining based flow cytometric analysis (reference value: 80.26 %); format: functional; details: read-out: Activity
MV4-11 [5] = assay: Induction of apoptosis in human MV4-11 cells assessed as early apoptotic cells at 0.1 uM measured after 48 hrs by Annexin V-FITC/PI double staining based flow cytometric analysis (reference value: 2.04 %); format: functional
MV4-11 [6] = assay: Induction of apoptosis in human MV4-11 cells assessed as late apoptotic cells at 0.1 uM measured after 48 hrs by Annexin V-FITC/PI double staining based flow cytometric analysis (reference value: 12.03 %); format: functional
MV4-11 [7] = assay: Induction of apoptosis in human MV4-11 cells assessed as necrotic cells at 0.1 uM measured after 48 hrs by Annexin V-FITC/PI double staining based flow cytometric analysis (reference value: 5.67 %); format: functional

Compound | IC50 (MOLM-13) [µM] | IC50 (MV4-11 [1]) [µM] | IC50 (HL-60) [µM] | IC50 (HepG2) [µM] | IC50 (A549) [µM] | IC50 at 72 h [2] [µM] | IC50 at 72 h [3] [µM] | viability at 0.1 µM (MV4-11 [4]) [%] | Activity (MV4-11 [5]) [%] | Activity (MV4-11 [6]) [%] | Activity (MV4-11 [7]) [%]
C=CC(=O)Nc1ccc(C(=O)Nc2ccc(-c3cc(C)nc4noc(N)c34)cc2)cc1OC | > 10 | 4.79 | > 10 | > 10 | > 10 | > 10 | > 10 | – | – | – | –
C=CC(=O)Nc1ccc(C(=O)Nc2ccc(-c3cc(C)nc4noc(N)c34)cc2)c(C(F)(F)F)c1 | 6.9 | 9.18 | 3.68 | > 10 | > 10 | > 10 | > 10 | – | – | – | –
C=CC(=O)Nc1ccc(C(=O)Nc2ccc(-c3cc(C)nc4noc(N)c34)cc2)cc1C | > 10 | 3.33 | 0.448 | 2.27 | > 10 | 3.23 | 2.77 | – | – | – | –
C=CC(=O)Nc1ccc(C(=O)Nc2ccc(-c3cc(C)nc4noc(N)c34)cc2)cc1Br | 7.35 | 1.22 | 0.601 | 2.68 | > 10 | > 10 | > 10 | – | – | – | –
C=CC(=O)N1CCC(C(=O)Nc2ccc(-c3cc(C)nc4noc(N)c34)cc2)CC1 | > 10 | > 10 | > 10 | > 10 | > 10 | > 10 | > 10 | – | – | – | –
C=CC(=O)Nc1ccc(C(=O)Nc2ccc(-c3cc(C)nc4noc(N)c34)cc2)cc1Cl | 3.76 | 0.675 | 0.307 | 2.61 | 5.54 | 2.65 | 7.52 | – | – | – | –
C=CS(=O)(=O)Nc1ccc(C(=O)Nc2ccc(-c3cc(C)nc4noc(N)c34)cc2)cc1 | > 10 | 2.55 | > 10 | > 10 | > 10 | > 10 | > 10 | – | – | – | –

Continued, in another order:

IC50 (MOLM-13) [µM] | IC50 (MV4-11 [1]) [µM] | IC50 (HL-60) [µM] | IC50 (HepG2) [µM] | IC50 (A549) [µM] | Compound | IC50 at 72 h [2] [µM] | IC50 at 72 h [3] [µM] | viability at 0.1 µM (MV4-11 [4]) [%] | Activity (MV4-11 [5]) [%] | Activity (MV4-11 [6]) [%] | Activity (MV4-11 [7]) [%]
0.019 | 0.0034 | 7.88 | 4 | 8.34 | Cc1ccc(F)c(NC(=O)Nc2ccc(-c3cccc4[nH]nc(N)c34)cc2)c1 [LINIFANIB] | 4.92 | 6.96 | 33.4 | 0.55 | 50.7 | 15.38
0.703 | 0.348 | 3.95 | 7.62 | > 10 | C=CC(=O)Nc1cccc(C(=O)Nc2ccc(-c3cc(C)nc4noc(N)c34)cc2)c1 | > 10 | > 10 | – | – | – | –
2.27 | 1.04 | > 10 | > 10 | > 10 | C=CC(=O)Nc1cccc(NC(=O)Nc2ccc(-c3cc(C)nc4noc(N)c34)cc2)c1 | > 10 | > 10 | – | – | – | –
> 10 | > 10 | > 10 | > 10 | > 10 | C=CC(=O)Nc1ccc(C(=O)Nc2ccc(-c3cc(C)nc4noc(N)c34)cc2)cc1F | > 10 | > 10 | – | – | – | –
2.52 | 1.26 | 7.39 | > 10 | > 10 | C=CC(=O)Nc1cccc(CC(=O)Nc2ccc(-c3cc(C)nc4noc(N)c34)cc2)c1 | > 10 | > 10 | – | – | – | –
7.42 | 1.34 | > 10 | > 10 | > 10 | C=CC(=O)Nc1ccc(CCC(=O)Nc2ccc(-c3cc(C)nc4noc(N)c34)cc2)cc1 | > 10 | > 10 | – | – | – | –
4.78 | 1.59 | 4.4 | > 10 | > 10 | C=CC(=O)Nc1ccc(C(=O)Nc2ccc(-c3cc(C)nc4noc(N)c34)cc2)cc1 | > 10 | > 10 | – | – | – | –
0.0046 | 0.00089 | > 10 | > 10 | 7.31 | Cc1cc(-c2ccc(NC(=O)Nc3ccc(Cl)c(C(F)(F)F)c3)cc2)c2c(N)onc2n1 | > 10 | 1.73 | – | – | – | –
6.23 | 2.17 | 8.53 | > 10 | > 10 | C=CC(=O)Nc1ccc(CC(=O)Nc2ccc(-c3cc(C)nc4noc(N)c34)cc2)cc1 | > 10 | > 10 | – | – | – | –
